This is an account of results in patent US7115296B2, “N-alkylaspartyl amide derivative and sweetening agent” (Ajinomoto Co., Inc., priority 2001, dated 2006).

One may read the half-life as how long it takes for the measured level to halve. Low values mean rapid decline, high ones slow decline.

Molecules are shown by their SMILES. Like-named read-outs stand apart in the source and are kept apart here. Peptide text beside a SMILES is read from it.

A short description of series [1]: sensory (organoleptic) test of sweetening potency.
A further series is described as follows: physchem. The settings on record: buffer, pH 3.
The conditions of series [2]: times that of sucrose; reported in WO 94/11391; cited from earlier work.
Where [3] appears, read: times the sweetness of sugar, sensory test.
The mark [4] stands for this setting: values compared to sweetening potency of a 4% aqueous solution of sucrose.

On to `CC[C@@H](C[C@H](O)[C@@H](C)NC(=O)[C@H](CC(=O)O)NCCCc1ccc(OC)cc1O)c1ccccc1` [compound 3, N-[3-(2-hydroxy-4-methoxyphenyl)propyl]-α-L-aspartyl N-(1R,2S,4S)-1-methyl-2-hydroxy-4-phenylhexyl amide], for which the figures for the Sweetening potency in series [1] (setting [3]) and in series [1] (setting [4]) were 6000 times and 6000, respectively.

In the series “physchem”, `COC(=O)[C@H](Cc1ccccc1)NC(=O)[C@@H](N)CC(=O)O` [aspartame] (H-Asp-Phe-OMe) gave a half-life of around 30 h.

Consider `CC[C@@H](C[C@H](O)[C@@H](C)NC(=O)[C@H](CC(=O)O)NCCC(C)(C)c1ccc(O)c(C)c1)c1ccccc1` [compound 10, N-[3-methyl-3-(3-methyl-4-hydroxyphenyl)butyl]-α-L-aspartyl N-(1R,2S,4S)-1-methyl-2-hydroxy-4-phenylhexyl amide], for which the Sweetening potency in series [1] (setting [3]) came to 15000 times; in series [1] (setting [4]), 15000.

`CC[C@@H](C[C@H](O)[C@@H](C)NC(=O)[C@H](CC(=O)O)NCCCc1ccc(C)c(O)c1)c1ccccc1` [compound 5, N-[3-(3-hydroxy-4-methylphenyl)propyl]-α-L-aspartyl N-(1R,2S,4S)-1-methyl-2-hydroxy-4-phenylhexyl amide]: the Sweetening potency is 6000 times in series [1] (setting [3]) and 6000 in series [1] (setting [4]).

In the case of `CC[C@@H](C[C@H](O)[C@@H](C)NC(=O)[C@H](CC(=O)O)NCCCc1ccc(O)cc1O)c1ccccc1` [compound 4, N-[3-(2,4-dihydroxyphenyl)propyl]-α-L-aspartyl N-(1R,2S,4S)-1-methyl-2-hydroxy-4-phenylhexyl amide], the Sweetening potency in series [1] (setting [3]) was found to be 10000 times; in series [1] (setting [4]), 10000.

As to `COc1ccc(CCCN[C@@H](CC(=O)O)C(=O)N[C@H](C)[C@H](O)CC2CCCCC2)cc1O` [compound 13, N-[3-(3-hydroxy-4-methoxyphenyl)propyl]-α-L-aspartyl N-(1R,2R)-1-methyl-2-hydroxy-3-cyclohexylpropyl amide], the values for the Sweetening potency in series [1] (setting [3]) and in series [1] (setting [4]) were 5000 times and 5000, respectively.

As to `CC[C@@H](C[C@H](O)[C@@H](C)NC(=O)[C@H](CC(=O)O)NCCCc1ccc(OC)c(O)c1)c1ccccc1` [compound 1, N-[3-(3-hydroxy-4-methoxyphenyl)propyl]-α-L-aspartyl N-(1R,2S,4S)-1-methyl-2-hydroxy-4-phenylhexyl amide], the Sweetening potency entry in series [1] (setting [3]) was “approximately 15000 times”; in series [1] (times the sweetness of sugar, sensory test, listed as Compound No.1) it was 15000 times; in series [1] (setting [4]) it was 15000.

Take `CC[C@@H](C[C@H](O)[C@@H](C)NC(=O)[C@H](CC(=O)O)NCCC(C)(C)CCO)c1ccccc1` [compound 15, N-(3,3-dimethyl-5-hydroxypentyl)-α-L-aspartyl N-(1R,2S,4S)-1-methyl-2-hydroxy-4-phenylhexyl amide]: the Sweetening potency in series [1] (setting [3]) was determined as 6500 times; in series [1] (setting [4]) it was 6500.

`CC[C@@H](C[C@H](O)[C@@H](C)NC(=O)[C@H](CC(=O)O)NCCCc1ccc(O)c(OC)c1)c1ccccc1` [compound 2, N-[3-(3-methoxy-4-hydroxyphenyl)propyl]-α-L-aspartyl N-(1R,2S,4S)-1-methyl-2-hydroxy-4-phenylhexyl amide]: the Sweetening potency in series [1] (setting [3]) came to 10000 times; in series [1] (setting [4]), 10000.

In the case of `COC(=O)[C@H](Cc1ccccc1)NC(=O)[C@H](CC(=O)O)NCCC(C)(C)C` [N-[N-(3,3-dimethylbutyl)-L-α-aspartyl]-L-phenylalanine 1-methyl ester], the Sweetening potency in series [2] is recorded as 10000 times.

With `CC[C@@H](C[C@H](O)[C@@H](C)NC(=O)[C@H](CC(=O)O)NCCC(C)(C)c1ccc(OC)c(O)c1)c1ccccc1` [compound 9, N-[3-methyl-3-(3-hydroxy-4-methoxyphenyl)butyl]-α-L-aspartyl N-(1R,2S,4S)-1-methyl-2-hydroxy-4-phenylhexyl amide], the Sweetening potency result is “approximately 15000 times” in series [1] (setting [3]); 15000 times in series [1] (times the sweetness of sugar, sensory test, listed as Compound No.9); 15000 in series [1] (setting [4]).

In the case of `CC[C@@H](C[C@H](O)[C@@H](C)NC(=O)[C@H](CC(=O)O)NCCCc1ccc(O)c(C)c1)c1ccccc1` [compound 6, N-[3-(3-methyl-4-hydroxyphenyl)propyl]-α-L-aspartyl N-(1R,2S,4S)-1-methyl-2-hydroxy-4-phenylhexyl amide], the figures for the Sweetening potency in series [1] (setting [3]) and in series [1] (setting [4]) were 4000 times and 4000, respectively.

Consider `CC[C@@H](C[C@H](O)[C@@H](C)NC(=O)[C@H](CC(=O)O)NCCCc1ccc(OC)cc1)c1ccccc1` [compound 8, N-[3-(4-methoxyphenyl)propyl]-α-L-aspartyl N-(1R,2S,4S)-1-methyl-2-hydroxy-4-phenylhexyl amide], for which the values for the Sweetening potency in series [1] (setting [3]) and in series [1] (setting [4]) were 3000 times and 3000, respectively.

With `COc1ccc(CCCN[C@@H](CC(=O)O)C(=O)N[C@H](C)C(O)CC2CCCCC2)cc1O` (mixture of isomers) [compound 12, N-[3-(3-hydroxy-4-methoxyphenyl)propyl]-α-L-aspartyl N-(1R,2RS)-1-methyl-2-hydroxy-3-cyclohexylpropyl amide], the Sweetening potency is on record as 4000 times in series [1] (setting [3]) and 4000 in series [1] (setting [4]).

`CC[C@@H](C[C@H](O)[C@@H](C)NC(=O)[C@H](CC(=O)O)NCCC(C)(C)CCCO)c1ccccc1` [compound 16, N-(3,3-dimethyl-6-hydroxyhexyl)-α-L-aspartyl N-(1R,2S,4S)-1-methyl-2-hydroxy-4-phenylhexyl amide]: the Sweetening potency in series [1] (setting [3]) was 4500 times; in series [1] (setting [4]) it was 4500.

In the case of `CC[C@@H](C[C@H](O)[C@@H](C)NC(=O)[C@H](CC(=O)O)NCCCc1ccc(O)cc1)c1ccccc1` [compound 7, N-[3-(4-hydroxyphenyl)propyl]-α-L-aspartyl N-(1R,2S,4S)-1-methyl-2-hydroxy-4-phenylhexyl amide], the Sweetening potency in series [1] (setting [3]) stood at 6000 times; in series [1] (setting [4]), 6000.

`COc1ccc(C(C)(C)CCN[C@@H](CC(=O)O)C(=O)N[C@H](C)[C@H](O)CC2CCCCC2)cc1O` [compound 14, N-[3-methyl-3-(3-hydroxy-4-methoxyphenyl)butyl]-α-L-aspartyl N-(1R,2R)-1-methyl-2-hydroxy-3-cyclohexylpropyl amide]: the results for the Sweetening potency in series [1] (setting [3]) and in series [1] (setting [4]) were 5000 times and 5000, respectively.

For `CC[C@H](C[C@H](O)[C@@H](C)NC(=O)[C@H](CC(=O)O)NCCCc1ccc(OC)c(O)c1)c1ccccc1` [compound 11, N-[3-(3-hydroxy-4-methoxyphenyl)propyl]-α-L-aspartyl N-(1R,2S,4R)-1-methyl-2-hydroxy-4-phenylhexyl amide], the values for the Sweetening potency in series [1] (setting [3]) and in series [1] (setting [4]) were 4000 times and 4000, respectively.
